One assay relates to RAD51. Put plainly: qRT-PCR DNA DSB repair gene expression in mouse sperm lysates, RAD51. Format: cell-based. As for the experimental part:
(§1) Treatment was performed with genotoxic stress (1 mM H2O2), S1P (200 μM), and S1P with genotoxic stress and control in culture for one hour. Also, the use of an ATM inhibitor was utilized (10 μM) (KU-55593, Abcam) (Li et al., 2014). We assessed DNA damage, apoptosis, and chromatin integrity. We also studied the DNA DSB repair gene expression by qRT-PCR in sperm lysates.
Sperm pellets previously snap-frozen in PBS were thawed. RNA was extracted using the trizol method (Rio et al., 2010). The quality and quantity of the RNA were measured with NanoDrop 2000 from Thermo Scientific. RNA (2 μg) from each sample was taken for reverse transcription with dTVN and N9 primers and SuperScript III reverse transcriptase, all procured from Invitrogen. The resulting cDNA was used to perform real-time qPCR with SYBR Green on an Applied Biosystems 7900HT Real-Time PCR machine was used. To determine the relative expression of various DNA repair genes in mouse sperm, we used the ΔΔCt method, which makes use of the expression of housekeeping genes. GAPDH was used as housekeeping gene. Primers were procured from Integrated DNA technologies (IDT) (Table 3).
(Quantitative PCR measures a nucleic acid by following its amplification.)

The subject of another assay is mouse sperm. Put plainly: Alkaline comet assay on mouse sperm. Format: cell-based. To be noted: for percent tail DNA, alkaline comet: mouse sperm, n=9, mean±SEM. Here is the method:
as §1
Slides were prepared 48 hours prior to experimentation by coating normal glass microscope slides with 500 μl normal melting point agar (0.5% w/v in PBS) solution and left to dry at room temperature for no less than 48 hours. Then, 10 μl of mouse sperm suspension was mixed with 90 μl of 0.5% LMPA. Then this 100 μl solution was added to the NMPA-coated slides. Coverslips were added and slides were placed on a metallic tray on ice and in the dark for 5 minutes. The cover slips were removed and a 90 μl layer of LMPA was added. Cover slips were subsequently replaced before the LMPA hardened. Slides were then kept in the dark on ice again for another 5 minutes. After ten minutes, the cover slips were removed and slides were placed in staining jars containing ice cold lysing solution (2.5 M NaCl, 200 mM NaOH, 100 mM EDTA, 10 mM Trizma Base, 1% Triton X-100 and 10% DMSO [pH 10]) for 1.5 hours at 4° C. in a dark place.
After this lysis step, the slides were washed three times for 5 minutes with TE buffer (pH 8.0), and then placed flatly in the electrophoresis tank face up for 30 minutes to achieve the unwinding of the DNA. The alkaline electrophoresis buffer in this tank included 300 mM NaOH and 1 mM EDTA [pH13]. This incubation period was used to achieve the alkaline unwinding of the DNA. Electrophoresis was then performed at 25 V, 300 mA for 30 minutes. After this, slides were washed twice in neutralization buffer (0.4 M Tris, pH 7.5) for 5 minutes each. Before analysis could occur, the sperm within the slides needed to be fixed by draining the slides well on paper towels and then subjecting them to two 10 minute washes in ethanol, and then air drying at room temperature for 5 minutes. Ethidium bromide (50 μl at 10 μg/ml in water) was then added on the slide, and sealed with a cover slip. Slides were kept moist, wrapped in aluminum foil to prevent light exposure, and stored at 4° C. until analysis (Williams et al., 2014).
Slides from both alkaline and neutral comets were imaged by fluorescence microscopy using a Nikon OPTIPHOT microscope. ImageJ was used for comet assay analysis, which calculated tail length, tail moment, and % of DNA in the tail. […] To analyze the slides, an oval around the sperm head was drawn and calculated and then an oval around the sperm tail was drawn and calculated. […] It was calculated as the Pythagorean distance between two points. […]

As for `CCCCCCCCCCCCC/C=C/[C@@H](O)[C@@H](N)COP(=O)(O)O` [S1P, sphingosine 1 phosphate], the “RAD51 expression (qRT-PCR)” value in the assay on RAD51 (S1P treatment, no ATM inhibitor) is “no significant difference”; with RAD51 (S1P with genotoxic stress, with ATM inhibitor, n=8, mean±SEM), 0.015±0.056. For the same compound, the “DNA damage, alkaline comet” value with mouse sperm (S1P-treated mouse sperm with ATM inhibitor) is on record as “no significant difference”. Further, the “percent tail DNA, alkaline comet” value was 16.79±0.89% in the assay on mouse sperm (S1P alone, without ATM inhibitor) and 16.8±0.87% with mouse sperm (S1P with H2O2, without ATM inhibitor).

Source of the values: patent US20190183910A1, “ENHANCING DNA REPAIR AND PREVENTING AGING AND ITS CONSEQUENCES IN REPRODUCTIVE AND OTHER CELLS” (NEW YORK MEDICAL COLLEGE, priority 2016, published 2019).
